Data set [1] in a line: In vitro solution stability in the presence of excess cysteine (radio-HPLC). It is filed as physicochemical. Conditions: 1 mg/mL cysteine, pH = 7.4, 37°C, mean ± SD. The method, then:
(§1) HYNIC-AF7p solution (20 μL, 60 μg/mL in H2O), of tricine solution (100 μL, 100 mg/mL in 25 mM succinate buffer, pH 5.0), SnCl2 solution (10 μL, 3 mg/mL in 0.1 M HCl) and Na^99mTcO4 (100 μL, 370 MBq) in saline were added into a 5 mL Eppendorf tube. The reaction mixture was kept at room temperature for 10 min. To the reaction mixture above was added 100 μL of the TPPTS solution (50 mg/mL in 25 mM succinate buffer, pH 5.0). The vial containing the reaction mixture was sealed, cramped, and heated at 90°C for 30 min. After cooling to room temperature, sample was analyzed by radio-HPLC. The radio-HPLC method used a HP Hewlett Packard Series 1100 HPLC system equipped with a Radioflow Detector LB509 and a reversed-phase Zorbax SB-C18 column (4.6 mm × 250 mm, 5 μm). The flow rate was 1 mL/min. The gradient mobile phase started with 90% solvent A (0.1% TFA in water) and 10% solvent B (0.1% TFA in acetonitrile) to 30% solvent A and 70% solvent B at 24 min to 0% solvent A and 100% solvent B at 27 min, followed with 90% solvent A and 10% solvent B at 30 min. […]
(§2) 100 μL of [^99mTc]-(HYNIC-AF7P)(tricine)(TPPTS) was added to either 0.9% physiological saline or 1 mg/mL cysteine solution. […] After 1 h, 2 h, 3 h, 4 h, 5 h and 6 h incubation, the radiochemical purity for [^99mTc]-(HYNIC-AF7P)(tricine)(TPPTS) at each time point was detected by radio-HPLC as described above.

Data set [2] has as its system MT1-MMP-positive MDA-MB-231 tumor. The data set is described as follows: SPECT imaging of MDA-MB-231 tumor-bearing mice. It is filed as in vivo. Conditions: mean ± SD; for tumor uptake (SPECT ROI), blocking: 200 μg unlabeled AF7P injected 30 min ahead of tracer; for tumor uptake (SPECT ROI), unblocked: i.v. On the procedure: All animal experiments were approved by Jilin University Health Science Center Animal Care and Use Committee. Human breast carcinoma cell line MDA-MB-231 with high MT1-MMP expression and human lung adenocarcinomaepithelial cell line A549 with low MT1-MMP expression were cultured in DMEM medium containing 10% (v/v) fetal bovine serum (Invitrogen) supplemented with penicillin (100 μg/mL) and streptomycin (100 μg/mL) at 37°C with 5% CO2. MDA-MB-231 and A549 tumor models were established by subcutaneous injection of 5×10^6 cells into the upper right front flank of female athymic nude mice (Department of Experimental Animal, Peking University Health Science Center). Tumor growth was monitored by caliper measurements three times a week after the tumors are palpable. The mice were used for SPET/CT imaging when the tumor volume reached about 200 mm3 (about 14 days after tumor inoculations). The tumor volume was determined as the formula: V = a × (b^2)/2, where a and b are the length and width of each tumor in mm respectively. During the injection and image acquisition process, the mice were anesthetized with 2.5% isoflurane in oxygen delivered at a flow rate of 1.5 L/min.
The imaging study was performed using the female BALB/c nude mice bearing the MDA-MB-231 tumors and A549 tumors. Each tumor-bearing mouse was administered intravenously with [^99mTc]-(HYNIC-AF7P)(tricine)(TPPTS) (22.2 MBq/mice) in 0.1 mL saline. For blocking test, 200 μg free AF7P was intravenously injected into MDA-MB-231 tumor bearing mice 30 min before [^99mTc]-(HYNIC-AF7P)(tricine)(TPPTS) was injected. Animals were placed prone on a two-head γ-camera (SIEMENS, E. CAM) equipped with a parallel-hole, low-energy, and high-resolution collimator. Posterior images were acquired at 0.5, 2 and 4 hours post injection (p.i.). The acquisition count limits were set at 700k. After completion of imaging, animals were sacrificed by cervical dislocation.

The nature of data set [3]: In vitro solution stability in saline (radio-HPLC). Conditions: 0.9% physiological saline, 37°C, 100 μL tracer in 400 μL total, mean ± SD. Type of data set: physicochemical. The method, then:
as §1, §2

The results in this text go back to paper PMC4593522, “Development of a Radiolabeled Peptide-Based Probe Targeting MT1-MMP for Breast Cancer Detection” (PLoS ONE, 2015).

Square brackets hold non-standard residues; d marks the D form. Peptide text beside a SMILES is read from it. * marks the point of attachment. HYNIC = NNc1ccc(C(=O)*)cn1; AEEA = NCCOCCOCC(=O)O

For `CC(C)C[C@H](NC(=O)[C@H](Cc1ccccc1)NC(=O)[C@@H](NC(=O)[C@H](CCCCN)NC(=O)[C@@H](NC(=O)[C@H](CC(N)=O)NC(=O)[C@H](Cc1c[nH]cn1)NC(=O)[C@H](CC(C)C)NC(=O)[C@H](Cc1c[nH]cn1)NC(=O)[C@H](CCCCN)NC(=O)[C@H](Cc1c[nH]c2ccccc12)NC(=O)[C@H](Cc1c[nH]cn1)NC(=O)c1ccc(NN)nc1)[C@@H](C)O)[C@@H](C)O)C(=O)NCCOCCOCC(=O)O` [[^99mTc]-(HYNIC-AF7P)(tricine)(TPPTS), metal not drawn] ({HYNIC}-HWKHLHNTKTFL[AEEA]-OH), the “original form (radiochemical purity) in solution containing excess cysteine” value is given as 94.2 ±1.72% in data set [1] (after 6 hours incubation) and 96.8 ± 1.52% in data set [1] (at the beginning). For the same compound, the “tumor uptake (SPECT ROI), blocking” value is given as 1.15±0.05 %ID/g in data set [2] (0.5 h p.i.), 1.05±0.12 %ID/g in data set [2] (2 h p.i.) and 1.03±0.34 %ID/g in data set [2] (4 h p.i.). Also, the “tumor uptake (SPECT ROI), unblocked” value in data set [2] (0.5 h p.i.) is listed as 4.15±0.27 %ID/g; in data set [2] (2 h p.i.), 2.58±0.21 %ID/g; in data set [2] (4 h p.i.) it was 1.59±0.11 %ID/g. Also, the “original form (radiochemical purity) in saline” value is reported as 93.5 ± 2.27% in data set [3] (after 6 hours incubation) and 96.8 ± 1.12% in data set [3] (at the beginning).
